Assay results published in patent US11414436B2, “Non-coordinating anion type activators containing cation having large alkyl groups” (ExxonMobil Chemical Patents Inc., priority 2018, dated 2022).
Values joined by “and” are separate entries in the source; they are usually repeats but may differ in a detail not shown here. Identical values can stand only once. One block for each compound: values may come before it.

Columns and labels:
[1] = Solubility studies of the activators (saturated solution in isohexane or methylcyclohexane); assay type: physicochemical; settings: for Solubility limit in i-hexane (mM at 25° C.) / Solubility limit in i-hexane (wt % at 25° C.): isohexane; for Solubility limit in MeCy (mM at 25° C.): methylcyclohexane
Method: Solubility Studies of the Activators
Procedure for Solid Activators.
A saturated solution of each of the solid ammonium borate activators was prepared by stirring an excess of the activator with either isohexane or methylcyclohexane solvent for several hours at 25° C. The mixture was then filtered and a known volume of the filtrate was evaporated to dryness in a tared vial. The vial was then weighed to determine the mass of activator that was dissolved in the aliquot. The concentration of the saturated solution is presented in millimoles of activator per liter of solution (mM).
Procedure for Activators that Form Emulsions.
A saturated solution of the activator was prepared by slowly adding the solvent to a pre-weighed amount of the activator. The final volume was determined as the minimum amount of solvent required to convert the emulsion into a homogeneous solution. The concentration of the saturated solution is presented in millimoles of activator per liter of solution (mM). Alternatively, an emulsion of the activator was prepared by adding the solvent to an excess amount of activator. The resulting emulsion was separated from the undissolved solids by decanting the emulsion into a tared vial. Solvent was then added dropwise until the emulsion became homogeneous. The mass of the final solution was measured and then the solvent was evaporated to dryness to obtain the mass of the activator. The concentration of the saturated solution is presented in millimoles of activator per liter of solution (mM).

[2] = as above; assay type: physicochemical; settings: methylcyclohexane
[3] = Propylene homopolymerization in parallel pressure reactor, MCN-1 with ammonium borate activators; settings: for activity: isohexane
Text: Polymerization in Parallel Pressure Reactor
Solvents, polymerization-grade toluene, and isohexane were supplied by ExxonMobil Chemical Company and purified by passing through a series of columns: two 500 cc Oxyclear cylinders in series from Labclear (Oakland, Calif.), followed by two 500 cc columns in series packed with dried 3 Å mole sieves (8-12 mesh; Aldrich Chemical Company), and two 500 cc columns in series packed with dried 5 Å mole sieves (8-12 mesh; Aldrich Chemical Company). 1-octene (C8) and 1-hexene (C6) (98%, Aldrich Chemical Company) were dried by stirring over NaK overnight followed by filtration through basic alumina (Aldrich Chemical Company, Brockman Basic 1).
(§1) Solutions of the metal complexes and activators were prepared in a drybox using toluene or methylcyclohexane. Concentrations were typically 0.2 mmol/L. Tri-n-octylaluminum (TNOAL, neat, AkzoNobel) was typically used as a scavenger. Concentration of the TNOAL solution in toluene ranged from 0.5 to 2.0 mmol/L.
(§2) Polymerizations were carried out in a parallel pressure reactor, as generally described in U.S. Pat. Nos. 6,306,658; 6,455,316; 6,489,168; WO 00/09255; and Murphy, V. et al. (2003) “A Fully Integrated High-Throughput Screening Methodology for the Discovery of New Polyolefin Catalysts: Discovery of a New Class of High Temperature Single-Site Group (IV) Copolymerization Catalysts,” J. Am. Chem. Soc., v. 125, pp. 4306-4317, each of which is fully incorporated herein by reference. […] Although the specific quantities, temperatures, solvents, reactants, reactant ratios, pressures, and other variables are frequently changed from one polymerization run to the next, the following describes a typical polymerization performed in a parallel pressure reactor.
Catalyst systems dissolved in solution were used in the polymerization examples below, unless specified otherwise.
RUN A: Propylene Homopolymerization (PP).
The reactor was prepared as described above and purged with propylene. For the examples in Table 2, the catalyst and activator solutions were prepared in toluene. […] Isohexane was then injected into each vessel at room temperature followed by a predetermined amount of propylene gas. The reactor was heated to the set temperature while stirring at 800 rpm, and the scavenger, activator and catalyst solutions were injected sequentially to each vessel. The polymerization was allowed to proceed as described previously.
A series of propylene polymerizations were performed in parallel pressure reactors (PPRs) developed by Symyx Technologies, Inc. In these polymerizations, the metallocene rac-dimethylsilyl-bis(indenyl)hafnium dimethyl (MCN-1) was used along with several different ammonium borate activators. Polymerizations were performed at 85° C. and 100° C.
Propylene homopolymerization (PP).
A series of propylene polymerizations were performed in the parallel pressure reactor similar to the procedure described above. In these studies rac-dimethylsilyl-bis(indenyl)hafnium dimethyl (MCN-1) was used along with ammonium borate activators.

[4] = Ethylene-octene copolymerization in parallel pressure reactor, non-metallocene catalyst CAT-1; settings: catalyst CAT-1 20 nmol; activator 1.1 equiv; 100° C.; 135 psi; 1-octene 100 uL; TNOAL 0.5 umol
Method: as §1, §2
(§3) Ethylene-Octene Copolymerization (EO).
(§4) A pre-weighed glass vial insert and disposable stirring paddle were fitted to each reaction vessel of the reactor, which contains 48 individual reaction vessels. The reactor was then closed and purged with ethylene. Each vessel was charged with enough solvent (typically isohexane) to bring the total reaction volume, including the subsequent additions, to the desired volume, typically 5 mL. 1-octene, if required, was injected into the reaction vessel and the reactor was heated to the set temperature and pressurized to the predetermined pressure of ethylene, while stirring at 800 rpm. The aluminum compound (such as tri-n-octylaluminum) in toluene was then injected as scavenger followed by addition of the activator solution (typically 1.0-1.2 molar equivalents).
(§5) The catalyst (and activator solutions for Run A) were all prepared in toluene. The catalyst solution (typically 0.020-0.080 μmol of metal complex) was injected into the reaction vessel and the polymerization was allowed to proceed until a pre-determined amount of ethylene (quench value typically 20 psi) had been used up by the reaction. Alternatively, the reaction may be allowed to proceed for a set amount of time (maximum reaction time typically 30 minutes). Ethylene was added continuously (through the use of computer controlled solenoid valves) to the autoclaves during polymerization to maintain reactor gauge pressure (P setpt, +/−2 psig) and the reactor temperature (T) was monitored and typically maintained within +/−1° C. The reaction was quenched by pressurizing the vessel with compressed air. After the reactor was vented and cooled, the glass vial insert containing the polymer product and solvent was removed from the pressure cell and the inert atmosphere glove box, and the volatile components were removed using a Genevac HT-12 centrifuge and Genevac VC3000D vacuum evaporator operating at elevated temperature and reduced pressure. The vial was then weighed to determine the yield of the polymer product. The resultant polymer was analyzed by Rapid GPC (see below) to determine the molecular weight, by FT-IR (see below) to determine percent octene incorporation, and by DSC (see below) to determine melting point (Tm).
(§6) Equivalence is determined based on the mole equivalents relative to the moles of the transition metal in the catalyst complex.
(§7) Activators of the present disclosure can also be used for activating non-metallocene catalysts for polymerization of olefins. Table 4 illustrates copolymerization of ethylene and octene using activators of the present disclosure and non-metallocene catalysts (CAT-1, CAT-2, CAT-3, and CAT-4).

[5] = Ethylene-octene copolymerization in parallel pressure reactor, non-metallocene catalyst CAT-2; settings: catalyst CAT-2 20 nmol; activator 1.1 equiv; 100° C.; 135 psi; 1-octene 100 uL; TNOAL 0.5 umol
Method: as §1, §2, §3, §4, §5, §6, §7

[6] = Ethylene-octene copolymerization in parallel pressure reactor, non-metallocene catalyst CAT-3; settings: catalyst CAT-3 20 nmol; activator 1.1 equiv; 100° C.; 135 psi; 1-octene 100 uL; TNOAL 0.5 umol
Method: as §1, §2, §3, §4, §5, §6, §7

[7] = Ethylene-octene copolymerization in parallel pressure reactor, non-metallocene catalyst CAT-4; settings: catalyst CAT-4 20 nmol; activator 1.1 equiv; 100° C.; 135 psi; 1-octene 100 uL; TNOAL 0.5 umol
Method: as §1, §2, §3, §4, §5, §6, §7

[8] = propylene, 100 °C, 150 psi, MCN-1 = 20 nmol, activator = 20 nmol, TNOAL 500 nmol

Compound: CCCCCCCCCC[NH+](C)c1ccccc1.Fc1c(F)c(F)c([B-](c2c(F)c(F)c(F)c(F)c2F)(c2c(F)c(F)c(F)c(F)c2F)c2c(F)c(F)c(F)c(F)c2F)c(F)c1F [MDAH-BF20, N-decyl-N-methylanilinium-BF20]
Solubility limit in i-hexane (mM at 25° C.) [1]: 1.3 mM
Solubility limit in i-hexane (wt % at 25° C.) [1]: 0.18 wt %
Solubility limit in MeCy (mM at 25° C.) [1]: 1.4 mM
Solubility limit in MeCy (wt % at 25° C.) [2]: 0.17 wt %

Compound: Di(hydrogenated tallow)methylamine-BF20 [M2HTH-BF20]
activity [3, 8]: 46 kg/mmol/h and 30 kg/mmol/h and 36 kg/mmol/h
activity [4]: 2030 kg/mmol/h and 2214 kg/mmol/h
activity [5]: 806 kg/mmol/h and 755 kg/mmol/h
activity [6]: 711 kg/mmol/h and 786 kg/mmol/h
activity [7]: 51 kg/mmol/h and 63 kg/mmol/h

Compound: Di(hydrogenated tallow)methylamine-BF28 [M2HTH-BF28]
activity ([3]; Activator Equiv 1.0, TNOAL 0.25 umol, MCN-1 30 nmol, 85° C., propylene 135 psi): 187 kg/mmol/h and 167 kg/mmol/h and 160 kg/mmol/h
activity ([3]; Activator Equiv 1.0, TNOAL 0.50 umol, MCN-1 30 nmol, 85° C., propylene 135 psi): 151 kg/mmol/h and 113 kg/mmol/h and 118 kg/mmol/h
activity ([3]; Activator Equiv 1.0, TNOAL 0.75 umol, MCN-1 30 nmol, 85° C., propylene 135 psi): 102 kg/mmol/h and 95 kg/mmol/h
activity ([3]; Activator Equiv 1.2, TNOAL 0.25 umol, MCN-1 30 nmol, 85° C., propylene 135 psi): 203 kg/mmol/h and 195 kg/mmol/h and 166 kg/mmol/h
activity ([3]; Activator Equiv 1.2, TNOAL 0.50 umol, MCN-1 30 nmol, 85° C., propylene 135 psi): 169 kg/mmol/h and 153 kg/mmol/h
activity ([3]; Activator Equiv 1.2, TNOAL 0.75 umol, MCN-1 30 nmol, 85° C., propylene 135 psi): 119 kg/mmol/h and 104 kg/mmol/h
activity ([3]; Activator Equiv 1.4, TNOAL 0.25 umol, MCN-1 30 nmol, 85° C., propylene 135 psi): 204 kg/mmol/h and 196 kg/mmol/h and 178 kg/mmol/h
activity ([3]; Activator Equiv 1.4, TNOAL 0.50 umol, MCN-1 30 nmol, 85° C., propylene 135 psi): 157 kg/mmol/h and 142 kg/mmol/h
activity ([3]; Activator Equiv 1.4, TNOAL 0.75 umol, MCN-1 30 nmol, 85° C., propylene 135 psi): 127 kg/mmol/h and 103 kg/mmol/h
activity ([3]; Activator Equiv 1.6, TNOAL 0.25 umol, MCN-1 30 nmol, 85° C., propylene 135 psi): 229 kg/mmol/h and 203 kg/mmol/h and 180 kg/mmol/h
activity ([3]; Activator Equiv 1.6, TNOAL 0.50 umol, MCN-1 30 nmol, 85° C., propylene 135 psi): 168 kg/mmol/h and 144 kg/mmol/h
activity ([3]; Activator Equiv 1.6, TNOAL 0.75 umol, MCN-1 30 nmol, 85° C., propylene 135 psi): 129 kg/mmol/h and 117 kg/mmol/h
average catalyst activity, comparison of the four activators (FIG. 6) ([3]; MCN-1, polypropylene at 100° C., Table 7 runs): much lower activity
activity ([3]; propylene, 85 °C, 135 psi, MCN-1 = 20 nmol, activator = 20 nmol, TNOAL 500 nmol): 75 kg/mmol/h and 55 kg/mmol/h
activity [3, 8]: 49 kg/mmol/h and 60 kg/mmol/h and 96 kg/mmol/h
activity [4]: 2494 kg/mmol/h and 1709 kg/mmol/h
activity [5]: 620 kg/mmol/h and 352 kg/mmol/h
activity [6]: 825 kg/mmol/h and 863 kg/mmol/h
activity [7]: 48 kg/mmol/h and 65 kg/mmol/h

Continued, values first:

Solubility limit in i-hexane (mM at 25° C.) [1]: 3.0 mM
Solubility limit in i-hexane (wt % at 25° C.) [1]: 0.73 wt %
Solubility limit in MeCy (mM at 25° C.) [1]: >190 mM
Solubility limit in MeCy (wt % at 25° C.) [2]: >40 wt %
Compound: CCCCCCCCCCCCCCCCCC[NH+](CCCCCCCCCCCCCCCCCC)c1ccccc1C.Fc1c(F)c(F)c2c(F)c([B-](c3c(F)c(F)c4c(F)c(F)c(F)c(F)c4c3F)(c3c(F)c(F)c4c(F)c(F)c(F)c(F)c4c3F)c3c(F)c(F)c4c(F)c(F)c(F)c(F)c4c3F)c(F)c(F)c2c1F [DOdoTH-BF28, 2-methyl-N,N-dioctadecylbenzenaminium-BF28]

Solubility limit in i-hexane (mM at 25° C.) [1]: 0.9 mM
Solubility limit in i-hexane (wt % at 25° C.) [1]: 0.12 wt %
Solubility limit in MeCy (mM at 25° C.) [1]: 1.7 mM
Solubility limit in MeCy (wt % at 25° C.) [2]: 0.21 wt %
Compound: CCCCCCCCCC[NH+](C)c1ccccc1.Fc1c(F)c(F)c2c(F)c([B-](c3c(F)c(F)c4c(F)c(F)c(F)c(F)c4c3F)(c3c(F)c(F)c4c(F)c(F)c(F)c(F)c4c3F)c3c(F)c(F)c4c(F)c(F)c(F)c(F)c4c3F)c(F)c(F)c2c1F [MDAH-BF28, N-decyl-N-methylanilinium-BF28]

Solubility limit in i-hexane (mM at 25° C.) [1]: 0.8 mM
Solubility limit in i-hexane (wt % at 25° C.) [1]: 0.10 wt %
Solubility limit in MeCy (mM at 25° C.) [1]: 7.9 mM
Solubility limit in MeCy (wt % at 25° C.) [2]: 1.1 wt %
Compound: CCCCCCCCCCCCCCCCCCc1ccc([NH+](C)C)cc1.Fc1c(F)c(F)c([B-](c2c(F)c(F)c(F)c(F)c2F)(c2c(F)c(F)c(F)c(F)c2F)c2c(F)c(F)c(F)c(F)c2F)c(F)c1F [OdDMAH-BF20, N,N-dimethyl-4-octadecylbenzenaminium-BF20]

Solubility limit in i-hexane (mM at 25° C.) [1]: <0.1 mM
Solubility limit in i-hexane (wt % at 25° C.) [1]: <0.1 wt %
Solubility limit in MeCy (mM at 25° C.) [1]: 1.9 mM
Solubility limit in MeCy (wt % at 25° C.) [2]: 0.3 wt %
Compound: CCCCCCCCCCCCCCCCCCc1ccc([NH+](C)C)cc1.Fc1c(F)c(F)c2c(F)c([B-](c3c(F)c(F)c4c(F)c(F)c(F)c(F)c4c3F)(c3c(F)c(F)c4c(F)c(F)c(F)c(F)c4c3F)c3c(F)c(F)c4c(F)c(F)c(F)c(F)c4c3F)c(F)c(F)c2c1F [OdDMAH-BF28, N,N-dimethyl-4-octadecylbenzenaminium-BF28]
